Results: article PMC12299847, “Macroalgae-Inspired Brominated Chalcones as Cosmetic Ingredients with the Potential to Target Skin Inflammaging” (Marine Drugs, 2025)

Key:
[1] = system: NO production in LPS-stimulated RAW 264.7 macrophages; assay: NO production (Griess assay) in LPS-stimulated macrophages; format: cell-based, murine; settings: Mus musculus, RAW264.7, 24 h, RAW 264.7, LPS 100 ng/mL, Griess
Description: The anti-inflammatory potential of chalcones 1–7 was evaluated in macrophages cultured in the presence or absence (control) of LPS, as depicted in Figure 4. Under basal conditions (unstimulated, control), macrophages produce low levels of nitrites (≈12%). […] Each chalcone was tested at concentrations previously established as non-cytotoxic in macrophages, trying to ensure that observed changes in NO levels were not due to reduced cell viability.
The production of NO was evaluated by measuring nitrite accumulation in culture supernatants using the previously described Griess assay. Cells were seeded at a concentration of 5.0 × 10^4 cells/mL in a 96-well plate (200 μL/well) and allowed to stabilize overnight at 37 °C. Afterwards, the cells were treated with different concentrations of compound solutions and pre-incubated for 1 h at 37 °C. Subsequently, an LPS in PBS solution was added to each well, achieving a final concentration of 100 ng/mL, and the plate was left to incubate for 24 h. An amount of 150 μL of the cell culture supernatant was then transferred to a fresh 96-well plate, and an equal amount of Griess reagent [comprising a 1:1 mixture of 1% (w/v) sulphanilamide in 5% (v/v) phosphoric acid and 0.1% (w/v) naphthylethylenediaminedihydrochloride] was added. Following a 30 min incubation at room temperature in the dark, the absorbance was recorded at 550 nm using a Biotek Synergy HT plate reader (Biotek, CA, USA). The nitrite concentration in the supernatants was determined by comparing the absorbance of each sample to a sodium nitrite standard curve. The results, obtained from at least three independent experiments performed in duplicate, were expressed as a percentage of NO production by cells versus chemical concentration, relative to LPS condition (100%).
Figure 4 NO production by macrophages treated with LPS (100 ng/mL) or not (control) in the presence of chalcones 1–7. Results are expressed as a percentage of NO production by cells treated with LPS (100 ng/mL). Each value represents the mean ± SEM of four independent experiments in duplicate. Statistical analysis: one ANOVA with Dunnett’s multiple comparisons test, where p< 0.05 was considered significant. *** p < 0.005, relative to the control, and ^# p < 0.05, ^## p < 0.01, ^### p < 0.0005, and ^#### p < 0.0001, relative to LPS condition.

[2] = Resazurin cell viability assay in HaCaT keratinocytes; format: cell-based, human; settings: human, HaCaT keratinocytes, resazurin, read-out: IC50 (cell viability, cytotoxicity)
Description: (§1) To evaluate the effects of chalcones 1–7 on cell viability after 24 h, a resazurin assay was performed using two cell lines: human HaCaT keratinocytes (HaCaT, CLS 300493), representing the epidermal layer, and murine RAW 264.7 macrophages (RAW 264.7, ATCC TIB-71), which model immune cells involved in dermal inflammatory responses. For the keratinocyte cell line, all seven brominated and non-brominated chalcones were tested across a concentration range from 2.5 μM to 125 μM (Figure 2).
(§2) Human keratinocytes (HaCaT, CLS 300493, Eppelheim, Germany) were cultured in DMEM supplemented with heat-inactivated FBS, and a penicillin and streptomycin antibiotic solution. The cell culture of keratinocytes was washed with 6 mL of phosphate buffer solution with 0.05% EDTA (Sigma-Aldrich, St. Louis, MO, USA) and detached using 3 mL of 0.05% trypsin + 0.02% EDTA in PBS solution when the cells reached 70–80% confluence in cell culture flasks. DMEM was also used to cultivate the mouse macrophage cell line (RAW 264.7, ATCC TIB-71, Manassas, VA, USA) together with 10% (v/v) non-inactivated FBS, 1.5 g/L sodium bicarbonate, and 100 U/mL penicillin and 100 μg/mL streptomycin stock (antibiotic solution). The macrophage culture was mechanically detached using a cell scraper, and the final amount of DMEM media with the cells was sub-cultured in a 1:10 ratio to the cellular suspension.
(§3) The resazurin reduction assay was employed to evaluate the metabolic activity of human epidermal keratinocyte (HaCaT) and murine macrophage (RAW264.7) cell lines, as outlined in a previous study. In brief, HaCaT cells (1.0 × 10^5 cells/mL) and RAW264.7 cells (5.0 × 10^4 cells/mL) were seeded in 96-well plates (200 μL/well) and incubated overnight at 37 °C to allow for cell attachment. Following this, the cells were treated with different concentrations of the test compounds and kept at 37 °C for 24 h. After 20 h, resazurin (500 μM in sterile phosphate buffer solution, pH 7.4) was added to each well to achieve a final concentration of 50 μM, followed by an additional incubation of 4 h. Absorbance was then measured at wavelengths of 570 and 620 nm using a SpectraMax Plus 384 absorbance microplate spectrophotometer (Molecular Devices, San Jose, CA, USA). Each experiment was conducted in triplicate, with a minimum of three independent assays. The results were graphically presented as the percentage of cell viability versus chemical concentration, relative to the control.
(§4) Figure 2 Cytotoxicity of chalcones 1–7 using a resazurin reduction assay in HaCaT cells by comparison with the control. Bar graphs represent the mean ± SEM of at least three independent experiments performed in triplicate. Statistical analysis: one ANOVA with Dunnett’s multiple comparisons test, where p < 0.05 was considered significant when compared to the control condition. * p < 0.05, ** p < 0.01, and *** p < 0.0005.

HaCaT keratinocytes = assay: as above; format: cell-based, human; settings: HaCaT, 24 h; for cytotoxicity / impact on keratinocyte viability: at 2.5 μM and 7.5 μM
Description: as §1, §2, §3, §4

RAW 264.7 macrophages = assay: Resazurin cell viability assay in RAW 264.7 macrophages; format: cell-based, murine; settings: RAW 264.7, 24 h
Description: as §1
To evaluate the cytotoxic effects of brominated and non-brominated chalcones 1–7 on macrophages, different concentration ranges were applied based on the response profiles previously observed for keratinocytes (Figure 3). […] For this set of chalcones, a similar tendency was observed: a lower cytotoxic characteristic of chalcone 4, which contained bromine atoms in both aromatic rings, compared to chalcones 5 (brominated in only the aromatic A ring) and 6 (non-brominated).
as §2
as §3, with “The results were graphically presented as the percentage of cell viability versus chemical concentration, relative to the control.” left out

Structure (SMILES)	IC50 [1] [µM]	IC50 at 24 h [2] [µM]	cytotoxicity / impact on keratinocyte viability (HaCaT keratinocytes)	concentration up to which acceptable levels of cytotoxicity were observed (RAW 264.7 macrophages)	reduction in cellular viability (HaCaT keratinocytes; at 2.5 μM) [%]
COc1cc(Br)cc(/C=C/C(=O)c2c(Br)c(Br)cc(OC)c2OC)c1OC [Chalcone 4]	0.97 ± 0.22	11.7 ± 1.34	no significant impact	up to 7.5 μM	
COc1cccc(/C=C/C(=O)c2c(Br)c(Br)cc(OC)c2OC)c1OC [Chalcone 5]	0.99 ± 0.54	30.4 ± 2.66	no significant impact	up to 1 μM	
COc1cccc(/C=C/C(=O)c2cccc(OC)c2OC)c1OC [Chalcone 6]	5.95 ± 1.49	14.7 ± 3.97		up to 1 μM	~25
